A melting point compilation (Tetko et al.; mined from patent text by program, amines drawn as free bases though some values may be those of a salt)

| Structure (SMILES) | melting point [°C] |
| --- | --- |
| O=C(OCC(Cl)(Cl)Cl)Oc1cc2occ(C(=O)O)c(=O)c2cc1OC(=O)OCC(Cl)(Cl)Cl | 166 to 167 |
| CCCCCCC(O)CCCCCCCCCCCOCC(O)CNCCO (centres undefined) | 71.8 to 72.5 |
| CC(=O)OC1(C(=O)COC(=O)CC(C)C)CCC2C3CC(C)C4=CC(=O)C=CC4(C)C3C(O)CC21C (centres undefined) | 126 to 130 |
| CNc1cccc(OC)c1[N+](=O)[O-] | 58 to 59 |
| CC(C)(C)c1cc(I)c2c(c1)CNC1(CCCCC1)O2 | 112 to 114 |
| Cc1cc(C)cc(Sc2cc(=O)[nH]c(C)c2CO)c1 | 268 to 270 |
| NS(=O)(=O)OCC1COc2cc(Cl)c(Cl)cc2O1 (centres undefined) | 109 to 111 |
| COC=C(C#N)C(=O)c1cc(F)c(Cl)cc1Cl | 159 |
| CCC12CCC3C4CCC(=O)C=C4CCC3C1CCC2C(C)=O (centres undefined) | 138 to 142 |
| CC1=CC(OC(=O)c2cccn2C)C(O)C(C)(C)CC1=O (centres undefined) | 141 to 142 |
| CN1C[C@H](CCCl)Oc2ncccc2C1=O | 61 to 62 |
| CN(C(=O)c1ccc2nonc2c1)C1CCCC(=O)C1 (centres undefined) | 164 to 165 |
| Cn1nnnc1CC(=O)c1ccccc1N | 128 to 132 |
| Cc1cccc(C(=O)C=C2CCCN2C)c1 | 60 to 62 |
| CNC(=O)c1cc2[nH]cnc2c(Cl)c1NC(=O)c1cc(C(F)(F)F)nn1-c1ncccc1Cl | 190 to 192 |
| NCC(=O)NCC(=O)Nc1ccc(Cl)cc1C(=O)c1ccccc1 | 136 to 138 |
| FC(F)(F)c1cc(-n2cncn2)c2cccc(C(F)(F)F)c2n1 | 106 to 107 |
| OCc1cccc2cc(Br)ccc12 | 72 to 75 |
| C=C(c1ccc(Cl)cc1)C1(n2ccnc2)CC1 | 94 to 95 |
| COc1ccc(C=O)c2cc(C)oc12 | 167 to 170 |

| Structure (SMILES) | melting point [°C] |
| --- | --- |
| Cc1ccc(C2c3c(C)c(N4CCN(C)CC4)c(C)c(C)c3OC2(C)C)cc1 (centres undefined) | 188 to 190 |
| O=C(O)[C@H](Cc1ccccc1)NS(=O)(=O)N1CCOCC1 | 157 to 158 |
| CCN(C)N1CSC(=Cc2cc(C(C)(C)C)c(O)c(C(C)(C)C)c2)C1=O | 134 to 135 |
| COC(=O)c1cccc(C=NO)c1 | 107 to 108 |
| c1cc(Oc2ccc3c(c2)CCCN3)ccn1 | 117 to 122 |
| CN(C)C=Nc1sc(C#N)c(Cl)c1C#N | 226 |
| CC(C)SC(=O)N1CCN(c2ccc3ncc(Br)n3n2)CC1 | 186 to 187 |
| CCCCc1c(OCCN2CCOCC2)c2c(OCCN3CCOCC3)cc(OCCN3CCOCC3)cc2oc1=O | 131 |
| N#Cc1c(Cl)[nH]c2cccnc12 | > 250 |
| Cc1c(C)c2c(c(C)c1NC=O)CC(C)(CO)O2 (centres undefined) | 149 to 150 |
| Cc1ccc2c(c1)N=C(N1CCN(C)CC1)c1cc(Br)cc3ccn-2c13 | 153 to 155 |
| Cn1cc(C=O)c(=O)c2cc(C(F)(F)F)ccc21 | 205 |
| Cc1cc(C#N)cc(C(=O)NCC2CC2)c1NC(=O)c1cc(C(F)(F)F)nn1-c1ncccc1Cl | 235 to 236 |
| CCCCn1c(=O)c2ncn(C)c2c2cccnc21 | 198 to 202 |
| N#Cc1cc(C(=O)c2ccc(C(F)(F)F)cc2)cc(O)c1O | 204 to 206 |
| CC1(C)CC(=O)C(C(=S)Nc2ccc(Cl)c(C(F)(F)F)c2)C(=O)C1 | 101 to 102 |
| CN1C(=O)C2(COc3cc4c(cc32)OCO4)c2c(C3CCOC3)cccc21 (centres undefined) | 182 to 184 |
| CNc1nc(NN)ncc1C#N | 247 to 249 |
| CCCCc1cc2ccc(C(=O)O)cc2o1 | 102 to 104 |
| CC(C)(C)C1=CC(=C(C#N)C#N)C=C(c2cccs2)S1(=O)=O | 164 to 165 |

Other lines, results leading:

| melting point [°C] | Structure (SMILES) |
| --- | --- |
| 163 to 164 | NC(=O)c1ccnc(-c2ccccc2)c1N |
| 156 to 160 | O=C(C1CC=CCC1)N1c2ccccc2CCC1CN1CCN(c2cccc3[nH]ccc23)CC1 (centres undefined) |
| 250 | CC(=O)Nc1ccc(Oc2c(NCc3ccco3)cc(C(=O)O)cc2S(=O)(=O)NC(C)=O)cc1 |
| 118 to 120 | Cc1cccc(-c2ccc(S(=O)(=O)N3c4ccccc4CC3C(=O)NCc3ccc(CC(=O)O)cc3)cc2)c1 (centres undefined) |
| 214 to 216 | Cc1c(-c2ccc(=O)[nH]c2)cccc1[N+](=O)[O-] |
| 130 to 135 | CC(C)c1cccc(-c2ccc(C(=O)NO)nc2)c1 |
| 148 to 150 | Cc1cc(C)c2cccc(OCc3c(Cl)ccc(S(=O)(=O)N4CCC[C@H]4C(=O)N4CCN(C(=O)c5ccc(C(N)=NO)cn5)CC4)c3Cl)c2n1 |
| 123 to 125 | CCCCOCCOc1ccc(-c2ccc3c(c2)C=C(C(=O)Nc2ccc(C(O)c4ccccn4)c(OC)c2)CCN3C(=O)C(F)(F)F)cc1 (centres undefined) |
| 95 to 97 | Brc1ccccc1-c1c(Br)cccc1Br |
| 128 to 129 | CS(=O)(=O)c1ccc(-c2cnn(CC(F)(F)F)c(=O)c2NC2CCCO2)cc1 (centres undefined) |
| 189 to 191 | CN(C)c1ccc(C(=O)N2CCC(c3[nH]nc4c3C(=O)c3c(NC(=O)NN5CCOCC5)cccc3-4)CC2)cc1 |
| 178 to 182 | CCCOc1cccc(-c2nn(C(C)c3oc4ccccc4c(=O)c3-c3cccc(F)c3)c3ncnc(N)c23)c1 (centres undefined) |
| 114 | Cc1ccccc1NS(=O)(=O)c1ccc(Br)cc1 |
| 102 | Cc1ccc(S(=O)(=O)N2[C@@H](Cc3nc(C4CC4)no3)CC[C@H]2c2ccc(F)cc2)cc1 (racemic) |
| 188 | O=C1c2ccccc2C(=O)N1CCCS(=O)(=O)c1ccc(Cl)cc1 |
| 54 | Nc1ccc(OCc2ccccc2)c(Cl)c1 |
| 131 | CN(C(=O)c1cc2ccccc2c(-c2ccccc2Cl)n1)C1CCCCC1 |
| 300 to 301 | O=c1c2cccnc2n(-c2cccc(Cl)c2)c2cc[nH]c12 |
| 66 to 69 | CCN(C)c1nc2cccc(C(=O)OC)c2n1Cc1ccc(-c2ccccc2C#N)cc1 |
| 64 | CCn1c(=O)n(CCc2ccc(C)cc2)c(=O)n(C(C)(C)C)c1=O |

| melting point [°C] | Structure (SMILES) |
| --- | --- |
| 291 to 293 | O=c1[nH]c(-c2cccc3ccccc23)nc2ccc(N3CCOCC3)cc12 |
| 132 to 134 | COc1cc(C=Cc2ccccc2)ccc1O |
| 117 to 119 | CSc1cc(C=O)cc(OCc2ccccc2)c1O |
| 86 to 89 | CCOC(=O)c1cnn(-c2ccccc2)c1Br |
| 96 to 97 | CCOC(=O)CC(C)(O)c1ccc(-c2ccc(F)cc2F)cc1 (centres undefined) |
| 195 | C#Cc1cc2c(Nc3ccc4c(cnn4Cc4ccccc4)c3)ncnc2s1 |
| 155 to 160 | O=C(CCCCCc1ccccc1)NNC(=O)c1ccc(O)cc1 |
| 148 | CC(=O)c1ccc(S(=O)(=O)N2CCCC2c2ccc(F)cc2)cc1 (racemic) |
| 74 to 76 | CS(=O)(=O)c1ccc(-n2nc(C(F)(F)F)cc2-c2ccc(-c3ccoc3)cc2)cc1F |
| 265 to 268 | O=c1[nH]nc2c3c(cccc13)N=C(CN1CCCN(S(=O)(=O)c3ccccc3)CC1)N2 |
| 160 to 165 | C(=NNc1cc(N2CCOCC2)nc(OCCc2ccccn2)n1)c1c[nH]c2ccccc12 |
| 66 to 67 | Nc1c(OCCCNCc2ccccc2)cccc1[N+](=O)[O-] |
| 131 | CCOC(=O)N1CCc2c(nc3ccccc3c2C)C(Cl)C1 (centres undefined) |
| 157 to 160 | Cc1nc2c3cccc(Cl)c3ccn2c1CN(C)C |
| 118 | CCCCCCCCCCC[C@H](CC(=O)N[C@@H](CO)CCCNC(=O)OCc1ccccc1)OCc1ccccc1 |
| 141 | CN(c1cccc2cc(C3=NCC(CC(=O)NS(C)(=O)=O)S3)[nH]c12)S(=O)(=O)c1cccs1 (centres undefined) |
| 229 to 234 | CN(CCN[C@H]1CC[C@H](c2ccccc2)CC1)c1ccc2[nH]c(=O)oc2c1 |
| 218 | CN1CCN(c2cccc3ccc(C(O)(c4ccccc4)c4ccccc4)cc23)CC1 |
| 77 to 80 | Cc1ccc(-c2nc(Cc3cc4cc(N(OCc5ccccc5)C(N)=O)ccc4o3)c(C)o2)cc1 |
| 180 to 183 | CCCCc1c(C(=O)N(C)Cc2ccc3c(Br)c(OCc4nnn[nH]4)ccc3c2)oc2ccccc12 |

| melting point [°C] | Structure (SMILES) |
| --- | --- |
| 157 to 162 | CCOC(=O)C1=C(C)NC(c2ncc[nH]2)=NC1c1ccc(F)cc1Cl (centres undefined) |
| 190 to 191 | CCCCNc1cc(CNC(C)=O)cc(S(N)(=O)=O)c1Oc1ccccc1 |
| 175 to 177 | CS(=O)(=O)c1ccc(-c2cnn(-c3ccc(F)cc3)c(=O)c2Cc2ccc(F)cc2)cc1 |
| 258 to 260 | Cc1cc(C)c(Nc2nc(C)ncc2S(=O)(=O)c2ccc(C#N)cc2)c(C)c1 |
| 147 to 148 | CCOC(=O)CN(C)C(=O)c1ccn2c1CNc1ccccc1C2 |
| 142 to 145 | COC(=O)c1cc(OCCCOc2ccc(-c3ccccc3)cc2)cc(OCCCOc2ccc(-c3ccccc3)cc2)c1 |
| 109 to 110 | CC(=O)OCc1c(C)n(Cc2ccccc2)c2c(OCc3ccc(F)cc3)nncc12 |
| 45 to 50 | CC(=O)C(=NNc1ccccc1)C(=O)OCC(C)C |
| 68 to 69 | Cc1cc2c(c(OCC(=O)c3ccc(C(C)C)cc3)c1)CCC2 |
| > 300 | CCCn1c(=O)c2[nH]c(-c3cc(C)n(CC(=O)Nc4cccc5ccccc45)n3)nc2n(CCC)c1=O |
| 166 to 168 | COC1(c2nc3ccc(C)cc3s2)C=CC(=NS(=O)(=O)c2ccc(C)cc2)C=C1 (centres undefined) |
| 145 to 150 | CCCc1c(OCc2ccc(C(=O)O)c(OCC)c2)ccc(C(C)=O)c1O |
| 125 to 127 | O=C1N(CCC2CC2)c2ccccc2C12COc1cc3c(cc12)OCO3 (centres undefined) |
| 91 to 92 | CC(C)Cn1c(-c2c(F)cccc2F)cnc(-n2cccn2)c1=O |
| 74 to 76 | CC(C)C(NC(=O)OCc1ccccc1)(C(=O)OCc1ccccc1)C1CO1 (centres undefined) |
| 130 to 138 | Cc1noc(NS(=O)(=O)c2ccccc2-c2ccc(-c3ncco3)cc2CN(C)C(=O)C(C)(C)c2ccccc2)c1C |
| 349 to 350 | O=C(Nc1nccs1)c1cnc2ccccc2c1O |
| 210 | COc1ccc(CCNc2nc(C)c(CCO)c(=O)n2C)cc1 |
| 249 to 252 | Nc1cccc(C(=O)Nc2ccc(-c3ccc(C(=O)N4CCN5CCC4CC5)o3)cc2)c1 |
